Assay results from patent US20260041653A1, “AN HDAC INHIBITOR FOR TREATING CANCER WITH A MODIFIED STK11 ACTIVITY OR EXPRESSION” (Tango Therapeutics, Inc., priority 2022, published 2026).
Several values for one entry are separate records, joined by “and”; a condition that tells them apart may be missing. Equal entries are not always repeated. Where two headings read alike, the source gives them in different places.

Columns and labels:
Predicted human PK = conditions: calculated from rodent and dog data
Description: The human PK parameters for a dose of Compound I that is predicted to be efficacious were calculated based on the data from rodent and dog studies and are presented in Table 6.

Pharmacokinetics in rats = format: in vivo, Sprague Dawley rats; conditions: rat, plasma
Description: The pharmacokinetics (PK) of Compound I in rats was determined following single IV bolus of 1 mg/kg in 20% wt/vol HPβCD, 1% vol/vol DMSO in saline or single PO dose of 3 mg/kg in 0.5% methylcellulose (MC) in water to male Sprague Dawley rats (fed for IV, fasted for PO). Plasma samples were collected from 3 animals/group at 0.05, 0.25, 0.5, 1, 2, 3, 4 8, and 24 hours after dosing.

[1] = Solubility in hERG assay medium; format: physicochemical; conditions: aqueous buffer, kinetic from dmso stock, 0.3% DMSO, pH 6.9
Description: (§1) The effects of Compound I on a cloned human ether-à-go-go-related gene (hERG) potassium channels stably expressed in human embryonic kidney (HEK) 293 cells were measured using manual patch-clamp technique. Briefly, Compound I was soluble at 100 uM in 0.3% DMSO, pH 6.9. A does range-finding (DRF) assay was performed with Compound I at 3. 30, and 100 uM concentrations.

H3K9Ac = H3K9Ac in MC38 tumor tissue by Western blot; format: in vivo, mouse; conditions: 3, 10, 30 mg/kg for 7 days; tissue 8 hours post last dose; normalized to total histone H3
Description: Formation and accumulation of acetylated histone 3 lysine 9 (H3K9Ac) in MC38 tumor tissue from mouse after treatment with Compound I was determined by Western blot. Briefly, female C57BL/6 mice with MC38 tumors were treated with Compound I for 7 days at the indicated dose (3 mg/kg, 10 mg/kg, and 30 mg/kg). Tissue was collected 8 hours post last dose and the H3K9Ac accumulation was quantified by Western blot in (FIG. 14A) and normalized to total histone H3 (FIG. 14B).

[2] = test system: cytokines and antigen presentation genes; experiment: Nanostring PanCancer IO 360 cytokine and HLA gene profiling of STK11-/- MC38; set-up: species or system mouse; conditions: 30 mg/kg for 7 days in vivo; 0.2 uM for 4 days in vitro
Description: The cytokine expression of tumors from mice treated with Compound I was determined by Nanostring PanCancer IO 360 analysis.
Briefly, STK11−/− MC38 tumors from mice treated for 7 days with 30 mg/kg of Compound I or anti-PD1 antibody alone or in combination were collected 8 hours post last dose. The gene expression profiles of CXCL9, CXCL10, and CXCL11 of the tumors were determined by Nanostring PanCancer IO 360 (FIG. 9A). Additionally, the gene expression profiles of Treg-recruiting chemokines CCL1 and CCL22 of the tumors were determined by Nanostring PanCancer IO 360 (FIG. 9B).
STK11-deficient MC38 cells were also profiled for HLA gene expression by Nanostring IO360 panel in vitro after 4 days of treatment with Compound I at 0.2 uM compared to DMSO solvent control (FIG. 9C).

CYP3A4 = CYP3A4 (Homo sapiens, UniProt P08684); experiment: CYP3A4 (Table 5); format: in vitro ADME; conditions: test not described
CYP3A4, sequence (P08684 whole entry): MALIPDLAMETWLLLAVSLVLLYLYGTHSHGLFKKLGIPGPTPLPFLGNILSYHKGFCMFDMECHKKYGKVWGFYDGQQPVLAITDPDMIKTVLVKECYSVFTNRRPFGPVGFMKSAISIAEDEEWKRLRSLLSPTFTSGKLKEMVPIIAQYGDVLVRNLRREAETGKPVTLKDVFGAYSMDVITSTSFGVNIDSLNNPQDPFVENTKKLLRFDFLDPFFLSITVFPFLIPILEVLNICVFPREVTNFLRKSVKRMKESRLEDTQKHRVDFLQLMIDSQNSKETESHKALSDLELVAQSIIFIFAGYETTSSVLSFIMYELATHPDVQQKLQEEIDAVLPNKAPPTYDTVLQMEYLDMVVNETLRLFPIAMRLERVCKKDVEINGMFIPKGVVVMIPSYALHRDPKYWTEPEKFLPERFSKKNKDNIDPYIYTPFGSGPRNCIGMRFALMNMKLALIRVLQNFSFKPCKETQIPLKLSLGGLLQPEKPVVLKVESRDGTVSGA

[3] = PK/PD study, plasma concentrations in MC38 tumor-bearing mice; format: in vivo, C57BL/6 mice; conditions: for free unbound exposure in plasma: based on 10.05% free fraction
Description: In a separate PK/PD study, MC38 tumor-bearing female C57BL/6 mice (12/group) were assigned to treatment groups with similar mean tumor volumes of approximately 430 mm^3 and treated with vehicle (5% N,N-dimethylacetamide [DMA]+30% polyethylene glycol [PEG] 400+65% of 30% 2-hydroxypropyl-beta-cyclodextrin [HP-β-CD] in water) or Compound I at 30, 100, and 300 mg/kg once daily (QD) for 2 days. […] Peripheral blood mononuclear cells (PBMC) and tumor samples were harvested at 2, 8, and 24 hours after last dose. The PBMC samples were processed for determination of mean florescent level of acetyl-histone H2B by flow cytometry. Tumor samples were processed for determination of protein levels of acetyl-histone H3 by Western blot.

HDAC10 = biological target: T1, HDAC10 (Homo sapiens, UniProt Q969S8); experiment: Cellular NanoBRET assay, HDAC10; format: cell-based
T1 construct: expressed in transfected cells
T1 sequence (Q969S8 whole entry): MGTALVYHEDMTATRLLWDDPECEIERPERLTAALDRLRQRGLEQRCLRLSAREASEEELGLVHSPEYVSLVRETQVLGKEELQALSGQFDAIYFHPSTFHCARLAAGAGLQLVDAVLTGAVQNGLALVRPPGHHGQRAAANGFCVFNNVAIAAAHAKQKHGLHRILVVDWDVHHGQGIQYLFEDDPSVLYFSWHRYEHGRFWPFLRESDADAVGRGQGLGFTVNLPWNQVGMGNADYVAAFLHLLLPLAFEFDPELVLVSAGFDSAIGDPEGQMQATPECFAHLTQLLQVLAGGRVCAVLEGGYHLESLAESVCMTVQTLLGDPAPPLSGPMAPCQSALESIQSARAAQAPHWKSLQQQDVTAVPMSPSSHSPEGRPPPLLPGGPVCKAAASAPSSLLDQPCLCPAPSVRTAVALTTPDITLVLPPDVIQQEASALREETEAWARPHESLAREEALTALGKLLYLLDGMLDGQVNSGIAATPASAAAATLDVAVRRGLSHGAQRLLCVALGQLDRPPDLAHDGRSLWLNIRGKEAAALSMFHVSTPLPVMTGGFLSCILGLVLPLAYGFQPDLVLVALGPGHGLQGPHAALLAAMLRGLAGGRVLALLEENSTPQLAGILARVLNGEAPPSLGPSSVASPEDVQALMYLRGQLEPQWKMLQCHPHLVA

hERG potassium channel = biological target: T2, hERG potassium channel (Homo sapiens, UniProt Q12809); experiment: hERG manual patch-clamp in HEK 293 cells; format: cell-based
T2 construct: expressed in transfected cells
T2 sequence (Q12809 whole entry): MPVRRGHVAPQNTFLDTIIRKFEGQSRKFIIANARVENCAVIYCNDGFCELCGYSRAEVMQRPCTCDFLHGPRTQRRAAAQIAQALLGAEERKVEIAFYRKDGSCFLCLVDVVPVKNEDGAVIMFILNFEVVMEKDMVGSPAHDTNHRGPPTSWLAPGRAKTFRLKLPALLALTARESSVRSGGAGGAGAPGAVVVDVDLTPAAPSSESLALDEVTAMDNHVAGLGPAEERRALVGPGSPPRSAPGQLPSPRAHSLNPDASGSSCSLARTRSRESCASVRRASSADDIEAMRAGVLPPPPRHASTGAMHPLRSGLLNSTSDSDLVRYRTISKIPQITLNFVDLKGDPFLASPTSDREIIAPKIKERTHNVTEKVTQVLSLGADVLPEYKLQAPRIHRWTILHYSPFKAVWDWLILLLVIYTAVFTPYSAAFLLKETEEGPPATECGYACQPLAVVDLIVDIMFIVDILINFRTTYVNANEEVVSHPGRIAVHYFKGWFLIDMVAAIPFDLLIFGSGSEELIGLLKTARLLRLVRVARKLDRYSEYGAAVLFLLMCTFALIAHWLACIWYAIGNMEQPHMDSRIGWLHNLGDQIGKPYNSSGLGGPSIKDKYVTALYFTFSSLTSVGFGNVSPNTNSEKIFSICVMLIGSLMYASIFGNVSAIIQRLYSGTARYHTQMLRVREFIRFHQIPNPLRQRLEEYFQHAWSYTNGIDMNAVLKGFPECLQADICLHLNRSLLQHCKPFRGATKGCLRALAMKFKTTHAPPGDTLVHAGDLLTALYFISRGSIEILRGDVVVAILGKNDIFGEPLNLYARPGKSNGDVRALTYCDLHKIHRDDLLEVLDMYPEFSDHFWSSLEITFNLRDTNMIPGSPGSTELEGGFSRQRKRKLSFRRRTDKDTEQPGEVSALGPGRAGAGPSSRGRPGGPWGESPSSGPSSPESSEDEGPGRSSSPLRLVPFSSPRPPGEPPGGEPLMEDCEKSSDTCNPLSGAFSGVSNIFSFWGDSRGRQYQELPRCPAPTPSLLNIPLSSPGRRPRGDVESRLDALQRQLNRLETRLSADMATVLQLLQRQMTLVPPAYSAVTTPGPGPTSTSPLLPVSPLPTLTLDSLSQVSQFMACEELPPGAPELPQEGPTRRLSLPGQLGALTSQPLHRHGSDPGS
Description: as §1

[4] = Tolerated and efficacious dose ranges in vivo
Description: Briefly, a colony forming unit assay was performed in vitro to evaluate the impact of HDAC inhibitors on the viability of erythroid and myeloid cells. Cells were treated with a dose response of each compound for 14 days. Cell colonies were quantified at the end of the experiment and compared to a solvent control. The efficacious dose range of Compound I was also plotted (the range was between 3 mg/kg and 75 mg/kg) (FIG. 12A). The IC50s for each compound were calculated from the erythroid and myeloid colony formation unit assay. These IC50s were normalized to the compound's potency against HDAC1 in the cellular NanoBRET assay to allow for head-to-head compound comparison (Table 4-1).
Compound I concentrations to HDAC1 or HDAC3 inhibition in vivo were plotted in FIG. 12D. Shaded boxes indicate tolerated and efficacious dose ranges of Compound I. Non-tolerated exposures were over 150 mg/kg.

STK11-null 3LL tumor = experiment: Anti-tumor efficacy in PD-1 resistant STK11-null 3LL model; format: in vivo; conditions: Compound I 75 mg/kg, Anti-PD1 10 mg/kg
Description: An in vivo anti-tumor efficacy of double combination treatment of Anti-PD1 and Compound I in a PD-1 resistant STK11-null 3LL model was performed. The parental (non STK11KO) 3LL line is relatively resistant to anti-PD1 treatment.
The animals (8/group) were divided into 4 groups: Group I was treated with a control antibody Anti-IgG2, group 2 was treated with anti-PD1 antibody, group 3 was treated with Compound I 75 mg/kg, and group 4 was treated with Compound 1 75 mg/kg and anti-PD1 antibody. Tumor volume and survival was monitored over the course of treatment. The tumor volume and survival was plotted by treatment group (FIG. 17A and FIG. 17B, respectively). The combination treatment with Compound I decreased the PD-1 resistance of this model caused by the SKT11 knockout to the baseline characteristic of the parental line as shown by Group 4's decreased tumor volume and increased survival over time compared to the other groups.

[5] = 30, 100, 300 mg/kg QD for 2 days

C[S@@](=N)(=O)c1ccc(C(=O)Nc2cc(-c3ccc(F)cc3)ccc2N)cc1 [Compound I, (R)—N-(4-amino-4′-fluoro-[1,1′-biphenyl]-3-yl)-4-(S-methylsulfonimidoyl)benzamide]
% F (Predicted human PK): 78% | MRT (Predicted human PK): 9.5 h | T1/2 (Predicted human PK): 6.6 h | Total AUC (Predicted human PK; dose predicted to be efficacious): 6300 ng·h/mL | half-life (Pharmacokinetics in rats; male, Sprague Dawley): 4.8 h | clearance (Pharmacokinetics in rats; male, Sprague Dawley, intravenous, 1 mg/kg, read-out: CL, p): 7.7 mL/min/kg | bioavailability (Pharmacokinetics in rats; male Sprague Dawley rats, PO 3 mg/kg in 0.5% MC, fasted, IV 1 mg/kg, read-out: PO bioavailability (% F)): 95.4% and 95% | solubility [1]: ≥ 100 µM | H3K9Ac accumulation in MC38 tumor tissue (H3K9Ac): dose dependent accumulation of H3K9Ac | immune evasion; expression of cytokines and antigen presentation genes [2]: reverses immune evasion on tumor cells | CYP3A4 (CYP3A4): No signal | free unbound exposure in plasma ([3]; 30 mg/kg QD for 2 days): 5470 ng·h/mL | free unbound exposure in plasma ([3]; 100 mg/kg QD for 2 days): 17238 ng·h/mL | free unbound exposure in plasma ([3]; 300 mg/kg QD for 2 days): 69665 ng·h/mL | plasma concentrations versus dose [3, 5]: dose proportional | time of maximal plasma concentrations after the last dose [3, 5]: 1 h | IC50 (HDAC10): > 30 µM | IC50 (hERG potassium channel; Table 5, read-out: hERG IC50): > 30 µM | IC50 (hERG potassium channel; definitive hERG assay, replicates of 3, read-out: hERG potassium current IC50): 71.1 µM | inhibition at 3 µM (hERG potassium channel; human, HEK 293 cells stably expressing hERG, 3 uM, dose range-finding assay, read-out: inhibition of hERG currents): 15.7% | inhibition at 30 µM (hERG potassium channel; human, HEK 293 cells stably expressing hERG, 30 uM, dose range-finding assay, read-out: inhibition of hERG currents): 45.9% | inhibition at 100 µM (hERG potassium channel; human, HEK 293 cells stably expressing hERG, 100 uM, dose range-finding assay, read-out: inhibition of hERG currents): 73.6% | Non-tolerated exposures [4]: over 150 mg/kg | Median TTE (STK11-null 3LL tumor): 18 days
